In brackets after ≈: the same amount, converted by molar mass. Like-named read-outs stand apart in the source and are kept apart here.
Assays:
Type in all cases: cell-based
[1] = system: Enterobacter cloacae ATCC-222; experiment: MIC (50% NHS); settings: ATCC222; Enterobacter cloacae ATCC-222, 50% NHS
[2] = system: Proteus mirabilis ATCC-29906; experiment: MIC (50% NHS); settings: ATCC29906; Proteus mirabilis ATCC-29906, 50% NHS
[3] = system: Escherichia coli ATCC-25922; experiment: MIC in the presence of normal human serum (50% NHS); settings: ATCC25922
Text: As used herein, the term “MIC” refers to minimum inhibitory concentrations. Minimum inhibitory concentrations may be determined by broth microdilution according to the Clinical and Laboratory Standards Institute guidelines (see, e.g., […]-A8. Methods for dilution antimicrobial susceptibility tests for bacteria that grow aerobically: approved standard, 8th Ed.; […] One example for measuring minimum inhibitory concentrations may be found in Reck et al., 2012, J. Med. Chem. 55:6916-6933, the disclosure of which is incorporated by reference. Inoculants may be incubated on blood agar plates for 18 to 24 hours. Incubation may occur at a temperature from about 35° C. to about 37° C. […] In serum supplemented experiments, the testing medium (e.g., DMSO solution) and human serum may be mixed. The ratio of testing medium to human serum may be 1:1 (vol:vol). Plates may be read by spectrophotometry at 620 nm. Unless indicated otherwise, all inhibitory concentrations recited in the specification relate to MICs. The MIC tests were based on broth microdilution method in CLSI-M7. […] Solutions of varying concentrations of DMSO were prepared in wells of a v-bottom 96-well plate (Axygen-WIPP02280). A multi-pipette was used to perform serial dilutions as necessary. From well to well, the drug concentrations were 6.4, 3.2, 1.6, 0.8, 0.4, 0.2, 0.1, 0.05, 0.025, 0.0125, 0.00625 and 0 mg/ml in DMSO. For extremely potent antibiotic, the starting concentrations were adjusted accordingly. This was the drug mother plate. Daughter plates were prepared by placing 98 μl of a testing medium into each well of a u-bottom 96-well plate (Costar 3788). An aliquot of each 2 μl solution from each well of the mother plate was then transferred into the corresponding wells of the daughter plate using a multi-pipette work station (CyBi®-SELMA). Testing media were selected based on CLSI-M7, M11 and […]. Cation adjusted Mueller Hinton Broth (CA-MHB-212322) was the testing medium for majority of bacterial species. Brucella medium (BD-211088) supplemented with 5% LHB, 0.5% hemin and 0.1% vitamin K1 (Sigma-95271) was the testing medium for anaerobic bacteria. One day prior to the day of MIC test, bacterial strains were streaked out from -80° C. glycerol stock onto Trypticase Soy Agar (TSA) plates (Brucella blood agar for anaerobic bacteria) and incubated at 37° C. for 20 hours (in anaerobic condition for anaerobic bacteria, e.g., 80% N2, 10% H2 and 10% CO2). Single colonies of bacteria were picked by using an inoculation loop (Greiner-731175) and suspended into 5 ml sterile saline. The turbidity of the suspension was adjusted to 0.10 (Siemens MicroS can turbidity meter), which implies a concentration of colony forming units (“CFU”) of approximately 1.0×10^8 CFU/ml. The bacterial suspension was diluted 100× in testing media. For MIC experiments with NHS, testing medium and human serum (Equitech Bio Inc. BRH-949908) were mixed in the ratio of 1:1. This was used for inoculation of the daughter plates. An aliquot of 100 μl of the bacterial suspension was inoculated into each well of the daughter plates using a multi-pipette. […] The plates were incubated in ambient atmosphere and at 37° C. in an incubator for 20 hours (for anaerobic bacteria in an anaerobic condition as described above for 48 hours). The MIC values were determined and based on the standards of CLSI methods M7-A7, broth microdilution method. […] Test compounds were compared to control antibiotics Penicillin G (Sigma-13752) and levofloxacin (Sigma-28266). […] Additionally, the MIC's of another gyrase inhibitor (“GSK”) with a structure different from the inventive compounds and the antibacterial levofloxin was measured. MIC are given in μg/mL.

[4] = system: Staphylococcus aureus NRS-100; experiment: MIC (50% NHS); settings: NRS100; Staphylococcus aureus NRS-100, 50% NHS
[5] = system: Acinetobacter baumannii ATCC 17978; experiment: MIC (50% NHS); settings: ATCC17978; Acinetobacter baumannii ATCC 17978, 50% NHS
[6] = Escherichia coli ATC-25922, 50% normal human serum, Table 5, read-out: MIC (50% NHS)
[7] = Escherichia coli ATCC-25922, 50% NHS, Table 6, read-out: MIC

SMILES | MIC [1] [µg/mL] | MIC [2] [µg/mL] | MIC [3, 6] [µg/mL] | MIC [3, 7] [µg/mL] | MIC [4] [µg/mL] | MIC [5] [µg/mL]
CNCc1ccc(-c2ccc(C3(O)C4CN(C)CC3CN(C(=O)Nc3cc(F)cc(F)c3)C4)nc2)c(C#N)c1 [Compound 17, (1R,5S,9r)-9-(5-(2-cyano-4-((methylamino)methyl)phenyl)pyridin-2-yl)-N-(3,5-difluorophenyl)-9-hydroxy-7-methyl-3,7-diazabicyclo[3.3.1]nonane-3-carboxamide] | 0.45 (≈ 0.845 µM) | 7.12 (≈ 13.4 µM) | 0.5 | 0.22 | 0.22 (≈ 0.413 µM) | 28.5 (≈ 53.5 µM)
CN1CC2CN(C(=O)Nc3cc(F)cc(F)c3)CC(C1)C2(O)c1ccc(-c2ccc(CN)cc2C#N)cn1 [Compound 24, (1R,5S,9r)-9-(5-(4-(aminomethyl)-2-cyanophenyl)pyridin-2-yl)-N-(3,5-difluorophenyl)-9-hydroxy-7-methyl-3,7-diazabicyclo[3.3.1]nonane-3-carboxamide] | 0.5 (≈ 0.964 µM) | 32 (≈ 61.7 µM) | 0.25 | 1 | 0.25 (≈ 0.482 µM) | 64 (≈ 123 µM)
CN1CC2CN(C(=O)Nc3cc(F)cc(F)c3)CC(C1)C2(O)c1ccc(-c2ccc(CN)cc2C#N)cc1 [Compound 23, (1R,5S,9r)-9-(4′-(aminomethyl)-2′-cyano-[1,1′-biphenyl]-4-yl)-N-(3,5-difluorophenyl)-9-hydroxy-7-methyl-3,7-diazabicyclo[3.3.1]nonane-3-carboxamide] | 0.5 (≈ 0.966 µM) | 4 (≈ 7.73 µM) | 0.5 | 0.5 | 0.13 (≈ 0.251 µM) | 64 (≈ 124 µM)
